From patent publication US10383847B2 (priority 2012, dated 2019)
Read-outs that look alike come from different tables or passages of the source.

Tests used:
HUVEC [1] = settings: cited from earlier work
U937 = settings: AML; cited from earlier work
[2] = test system: HT-29 colorectal cell lines; settings: cited from earlier work
ERBB3 = target: T1, ERBB3 (Homo sapiens, UniProt P21860); assay: competition binding kinase scan; settings: FIGS. 4 and 6
T1 construct: DNA tag / T7 phage fusion; made in house; host or cells: T7 phage in E. coli (BL21-derived) or HEK-293
Protocol: (§1) The scanning procedure is based on a competition binding assay that quantitatively measures the ability of a compound to compete with an immobilized, active-site directed ligand. The assay is performed by combining three components: DNA-tagged kinase; immobilized ligand; and a test compound. The ability of the test compound to compete with the immobilized ligand is measured via quantitative PCR of the DNA tag. This procedure is described in T. A. Carter et al., “Inhibition of Drug-Resistant Mutants of ABL, KIT, and EGF Receptor Kinases,” Proc. Natl. Acad. Sci. USA 102: 11011-11016 (2005), incorporated herein by this reference.
(§2) Kinase assays were carried out as follows: For most assays, kinase-tagged T7 phage strains were grown in parallel in 24-well blocks in an Escherichia coli host derived from the BL21 strain. E. coli were grown to log-phase and infected with T7 phage from a frozen stock (multiplicity of infection=0.4) and incubated with shaking at 32° C. until lysis (90-150 minutes). The lysates were centrifuged (6,000×g) and filtered (0.2 μm) to remove cell debris. The remaining kinases were produced in HEK-293 cells and subsequently tagged with DNA for qPCR detection. Streptavidin-coated magnetic beads were treated with biotinylated small molecule ligands for 30 minutes at room temperature to generate affinity resins for kinase assays. The liganded beads were blocked with excess biotin and washed with blocking buffer (SeaBlock (Pierce), 1% BSA, 0.05% Tween 20, 1 mM DTT) to remove unbound ligand and to reduce nonspecific phage binding. Binding reactions were assembled by combining kinases, liganded affinity beads, and test compounds in 1× binding buffer (20% SeaBlock, 0.17×PBS, 0.05% Tween 20, 6 mM DTT). Test compounds were prepared as 40×stocks in 100% DMSO and directly diluted into the assay. All reactions were performed in polypropylene 384-well plates in a final volume of 0.04 mL. The assay plates were incubated at room temperature with shaking for 1 hour and the affinity beads were washed with wash buffer (1×PBS, 0.05% Tween 20). The beads were then re-suspended in elution buffer (1×PBS, 0.05% Tween 20, 0.5 μM non-biotinylated affinity ligand) and incubated at room temperature with shaking for 30 minutes. The kinase concentration in the eluates was measured by qPCR.
(§3) The compounds were screened at the requested concentrations, and results for primary screen binding interactions were reported as “% Ctrl,” where lower numbers indicate stronger hits (i.e., an increased degree of inhibition of kinase activity) as follows (Equation (1)): […]

NEK9 = target: T2, NEK9 (Homo sapiens, UniProt Q8TD19); assay: competition binding kinase scan
T2 construct: DNA tag / T7 phage fusion; made in house; host or cells: T7 phage in E. coli (BL21-derived) or HEK-293
Protocol: as §1, §2, §3

STK25 = target: T3, STK25 (Homo sapiens, UniProt O00506); assay: competition binding kinase scan; settings: FIGS. 4 and 6
T3 construct: DNA tag / T7 phage fusion; made in house; host or cells: T7 phage in E. coli (BL21-derived) or HEK-293
Protocol: as §1, §2, §3

[3] = test system: chronic myelogenous leukemia (CML) patients; settings: cited from earlier work
[4] = Chromabs; cited from earlier work
VCAM-1 = settings: cited from earlier work
K562 cells = settings: cited from earlier work
HL-60 = settings: AML; cited from earlier work
ECV304 [5] = settings: cited from earlier work
murine cancer models = settings: mouse, in vivo; cited from earlier work
[6] = test system: Walker 256 carcino-sarcoma; settings: in vivo; cited from earlier work
[7] = test system: HT-29 colorectal xenografts; settings: in vivo; cited from earlier work
AML cells = settings: DKO insensitive to chemotherapy; cited from earlier work
AML NOD/SCID model = settings: in vivo; cited from earlier work
dogs = settings: 10 mg/kg/d p.o. for 6 months; cited from earlier work
primary AML = settings: cited from earlier work
VEGF = settings: cited from earlier work
AML cell lines = settings: cited from earlier work
cytochrome P450 2C8 = cytochrome P450 2C8 (Homo sapiens, UniProt P10632); settings: cited from earlier work
cytochrome P450 2C19 = cytochrome P450 2C19 (Homo sapiens, UniProt P33261); settings: by oxidation; cited from earlier work
W256 cells = settings: cited from earlier work
Lewis lung sarcoma = settings: in vivo; cited from earlier work
ECV304 [8] = settings: cited from earlier work; remark: listed apart in the source
cytochrome P450 1A2 [9] = target: T4, cytochrome P450 1A2 (Homo sapiens, UniProt P05177); settings: by oxidation; cited from earlier work
Jurkat cells = settings: inducing phosphorylation of c-Myb; cited from earlier work
[10] = Ames; cited from earlier work
HUVEC [11] = settings: cited from earlier work; remark: listed apart in the source
[12] = test system: human myeloblastic leukemic cells; settings: cited from earlier work
cytochrome P450 1A2 [13] = target: T4, cytochrome P450 1A2; settings: cited from earlier work
[14] = test system: malignant cell lines, particularly AML cell lines (MV 4-11, myeloid cell lines); assay: viability of cancer cell lines after meisoindigo treatment; assay type: cell-based; settings: 0.1-100 μM, 24 and 48 hours
Protocol: Viability at 48 hours is shown by (♦); viability at 24 hours is shown by (▪).

[15] = test system: hepatic cytochrome P450 (CYP); settings: hepatic CYP-mediated; cited from earlier work
rats = settings: up to 400 mg/kg/d p.o. for 30 days; cited from earlier work
[16] = target: glycogen synthase kinase-3β (GSK-3β) (Homo sapiens, UniProt P49841); settings: cited from earlier work
patients = settings: cited from earlier work
HT29 = settings: colorectal cancer; cited from earlier work
K562 = settings: CML; cited from earlier work
primary AML cells = settings: cited from earlier work
[17] = test system: uridine glucuronyltransferases (UGT); settings: direct conjugation without initial cytochrome P450 oxidation, more polar metabolites; cited from earlier work
HL-60 cells = settings: cited from earlier work
NB4 = settings: AML; cited from earlier work
HL-60 myeloid cells = settings: cited from earlier work

T4 sequence (P05177 whole entry, species assumed): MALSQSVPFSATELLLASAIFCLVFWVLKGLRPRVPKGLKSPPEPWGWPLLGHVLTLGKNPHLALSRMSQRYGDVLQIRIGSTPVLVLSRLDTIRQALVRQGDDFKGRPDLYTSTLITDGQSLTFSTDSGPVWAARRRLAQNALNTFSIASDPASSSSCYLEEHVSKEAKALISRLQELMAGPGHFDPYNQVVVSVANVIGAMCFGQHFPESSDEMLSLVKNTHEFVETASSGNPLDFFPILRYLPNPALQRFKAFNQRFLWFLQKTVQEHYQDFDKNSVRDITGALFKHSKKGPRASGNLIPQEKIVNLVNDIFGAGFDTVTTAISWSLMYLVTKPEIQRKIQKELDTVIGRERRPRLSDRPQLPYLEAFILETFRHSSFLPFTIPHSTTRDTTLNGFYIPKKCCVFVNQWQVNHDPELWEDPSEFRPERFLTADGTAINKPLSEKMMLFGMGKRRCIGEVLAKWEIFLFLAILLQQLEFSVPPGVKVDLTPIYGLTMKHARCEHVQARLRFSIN
T2 sequence (Q8TD19 whole entry, the tested form may be a part): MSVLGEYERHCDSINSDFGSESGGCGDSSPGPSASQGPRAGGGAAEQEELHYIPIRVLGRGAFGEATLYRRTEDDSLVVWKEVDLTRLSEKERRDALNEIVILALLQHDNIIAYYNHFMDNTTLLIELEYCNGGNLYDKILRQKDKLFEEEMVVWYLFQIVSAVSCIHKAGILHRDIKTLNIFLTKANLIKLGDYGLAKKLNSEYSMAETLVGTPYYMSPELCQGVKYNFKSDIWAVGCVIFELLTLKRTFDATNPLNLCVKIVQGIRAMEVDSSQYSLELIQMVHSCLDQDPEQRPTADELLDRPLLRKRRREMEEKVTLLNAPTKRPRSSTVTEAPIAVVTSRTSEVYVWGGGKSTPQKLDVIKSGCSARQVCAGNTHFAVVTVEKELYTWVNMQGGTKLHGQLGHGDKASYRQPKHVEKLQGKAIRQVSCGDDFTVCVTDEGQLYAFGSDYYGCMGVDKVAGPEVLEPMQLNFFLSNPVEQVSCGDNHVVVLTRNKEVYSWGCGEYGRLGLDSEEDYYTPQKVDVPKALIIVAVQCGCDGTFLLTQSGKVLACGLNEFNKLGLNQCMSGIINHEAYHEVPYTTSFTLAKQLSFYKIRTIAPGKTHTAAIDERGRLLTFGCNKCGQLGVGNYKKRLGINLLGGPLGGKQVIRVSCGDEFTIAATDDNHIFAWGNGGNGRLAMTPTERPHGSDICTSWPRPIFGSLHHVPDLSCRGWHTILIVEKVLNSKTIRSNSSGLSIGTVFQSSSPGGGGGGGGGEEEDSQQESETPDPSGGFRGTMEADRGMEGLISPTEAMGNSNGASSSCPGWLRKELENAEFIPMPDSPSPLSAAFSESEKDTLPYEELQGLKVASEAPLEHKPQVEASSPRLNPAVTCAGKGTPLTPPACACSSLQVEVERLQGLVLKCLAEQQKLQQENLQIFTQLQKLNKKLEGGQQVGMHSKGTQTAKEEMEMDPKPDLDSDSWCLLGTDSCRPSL
T3 sequence (O00506 whole entry, the tested form may be a part): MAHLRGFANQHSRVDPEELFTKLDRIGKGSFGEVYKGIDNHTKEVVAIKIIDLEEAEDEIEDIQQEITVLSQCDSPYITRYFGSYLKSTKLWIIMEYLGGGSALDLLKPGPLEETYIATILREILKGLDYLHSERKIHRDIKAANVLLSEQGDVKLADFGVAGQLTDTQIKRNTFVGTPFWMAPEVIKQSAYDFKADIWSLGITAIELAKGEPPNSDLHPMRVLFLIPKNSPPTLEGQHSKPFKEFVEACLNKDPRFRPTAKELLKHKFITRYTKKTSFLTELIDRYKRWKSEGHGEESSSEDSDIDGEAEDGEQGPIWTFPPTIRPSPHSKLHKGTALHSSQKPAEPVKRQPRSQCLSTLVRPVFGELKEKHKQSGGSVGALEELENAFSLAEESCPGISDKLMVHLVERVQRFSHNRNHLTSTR
cytochrome P450 2C19, sequence (P33261 whole entry): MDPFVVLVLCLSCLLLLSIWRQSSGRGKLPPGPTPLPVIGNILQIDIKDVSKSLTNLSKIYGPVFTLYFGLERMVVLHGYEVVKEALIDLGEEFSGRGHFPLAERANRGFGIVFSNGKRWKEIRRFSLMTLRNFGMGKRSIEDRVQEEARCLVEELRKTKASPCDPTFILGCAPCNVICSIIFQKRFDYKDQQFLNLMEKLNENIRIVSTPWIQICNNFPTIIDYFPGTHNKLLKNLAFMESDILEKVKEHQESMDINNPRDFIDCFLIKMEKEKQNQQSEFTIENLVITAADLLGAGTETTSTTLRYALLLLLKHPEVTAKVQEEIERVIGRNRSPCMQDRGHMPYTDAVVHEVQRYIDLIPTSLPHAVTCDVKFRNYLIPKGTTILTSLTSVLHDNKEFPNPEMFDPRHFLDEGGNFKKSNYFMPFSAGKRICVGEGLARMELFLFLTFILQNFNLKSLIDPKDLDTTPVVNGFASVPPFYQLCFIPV
glycogen synthase kinase-3β (GSK-3β), sequence (P49841 whole entry, species assumed): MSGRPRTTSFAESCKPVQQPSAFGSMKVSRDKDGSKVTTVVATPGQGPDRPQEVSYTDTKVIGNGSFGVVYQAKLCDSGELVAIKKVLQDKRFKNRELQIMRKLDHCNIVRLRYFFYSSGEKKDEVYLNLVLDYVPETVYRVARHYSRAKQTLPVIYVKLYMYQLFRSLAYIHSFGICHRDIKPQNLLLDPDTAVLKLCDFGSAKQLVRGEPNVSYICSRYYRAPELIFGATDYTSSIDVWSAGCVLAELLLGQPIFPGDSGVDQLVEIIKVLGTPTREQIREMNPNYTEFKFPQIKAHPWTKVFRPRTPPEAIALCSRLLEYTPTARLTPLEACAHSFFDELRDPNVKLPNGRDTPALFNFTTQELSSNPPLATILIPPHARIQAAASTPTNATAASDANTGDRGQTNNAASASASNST
cytochrome P450 2C8, sequence (P10632 whole entry): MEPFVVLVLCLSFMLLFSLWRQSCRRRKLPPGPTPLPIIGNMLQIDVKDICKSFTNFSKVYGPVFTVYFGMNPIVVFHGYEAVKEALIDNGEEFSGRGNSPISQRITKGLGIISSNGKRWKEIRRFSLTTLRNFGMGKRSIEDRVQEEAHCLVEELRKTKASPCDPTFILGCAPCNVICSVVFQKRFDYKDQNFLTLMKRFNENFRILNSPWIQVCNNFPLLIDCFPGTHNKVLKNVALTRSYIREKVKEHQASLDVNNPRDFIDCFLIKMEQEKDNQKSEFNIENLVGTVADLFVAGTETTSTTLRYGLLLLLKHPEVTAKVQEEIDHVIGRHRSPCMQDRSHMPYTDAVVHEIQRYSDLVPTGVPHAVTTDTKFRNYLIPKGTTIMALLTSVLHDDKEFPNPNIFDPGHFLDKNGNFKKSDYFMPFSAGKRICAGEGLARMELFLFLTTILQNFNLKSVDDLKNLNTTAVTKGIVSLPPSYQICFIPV
T1 sequence (P21860 20-1342): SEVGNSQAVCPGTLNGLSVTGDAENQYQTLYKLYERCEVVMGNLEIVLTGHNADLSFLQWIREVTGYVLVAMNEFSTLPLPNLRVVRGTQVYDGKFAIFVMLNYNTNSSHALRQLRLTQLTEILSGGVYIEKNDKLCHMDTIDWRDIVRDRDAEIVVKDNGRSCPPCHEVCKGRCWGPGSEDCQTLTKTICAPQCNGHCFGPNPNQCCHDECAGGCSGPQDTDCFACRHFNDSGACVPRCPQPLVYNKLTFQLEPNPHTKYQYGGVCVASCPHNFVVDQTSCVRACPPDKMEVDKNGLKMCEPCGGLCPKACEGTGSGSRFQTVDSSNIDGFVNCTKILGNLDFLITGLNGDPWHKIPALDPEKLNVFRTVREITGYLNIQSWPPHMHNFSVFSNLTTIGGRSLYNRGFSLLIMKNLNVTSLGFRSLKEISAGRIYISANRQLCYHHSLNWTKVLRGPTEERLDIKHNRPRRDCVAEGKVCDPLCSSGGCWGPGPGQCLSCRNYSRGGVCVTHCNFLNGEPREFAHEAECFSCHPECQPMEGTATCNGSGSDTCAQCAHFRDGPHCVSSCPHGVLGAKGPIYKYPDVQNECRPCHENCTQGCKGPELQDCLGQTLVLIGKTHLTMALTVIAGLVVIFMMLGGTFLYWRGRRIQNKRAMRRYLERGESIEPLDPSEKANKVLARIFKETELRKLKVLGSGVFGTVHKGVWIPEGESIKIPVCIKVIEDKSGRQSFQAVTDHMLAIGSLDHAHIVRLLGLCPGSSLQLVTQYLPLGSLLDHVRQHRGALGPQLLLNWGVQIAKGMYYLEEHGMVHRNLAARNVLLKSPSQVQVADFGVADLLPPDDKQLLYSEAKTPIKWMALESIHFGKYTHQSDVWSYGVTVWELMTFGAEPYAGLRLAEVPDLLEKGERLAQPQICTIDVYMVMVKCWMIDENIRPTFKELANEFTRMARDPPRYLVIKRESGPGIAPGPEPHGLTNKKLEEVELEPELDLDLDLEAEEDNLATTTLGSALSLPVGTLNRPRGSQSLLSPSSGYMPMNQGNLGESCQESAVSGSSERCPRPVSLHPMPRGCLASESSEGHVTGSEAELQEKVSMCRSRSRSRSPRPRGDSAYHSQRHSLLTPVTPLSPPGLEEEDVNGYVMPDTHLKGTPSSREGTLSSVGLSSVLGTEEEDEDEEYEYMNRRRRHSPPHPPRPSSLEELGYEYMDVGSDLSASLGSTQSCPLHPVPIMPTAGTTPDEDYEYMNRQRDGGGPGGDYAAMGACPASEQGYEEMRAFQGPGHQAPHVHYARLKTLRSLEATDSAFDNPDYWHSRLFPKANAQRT

## CN1C(=O)/C(=C2/C(=O)Nc3ccccc32)c2ccccc21 [Meisoindigo, 3-(1,2-dihydro-2-oxo-3H-indol-3-ylidene)-1,3-dihydro-1-methyl-2H-indol-2-one]
HUVEC [1]
  activity against cells: activity
U937
  activity against cells: activity
[2]
  cell cycle specific effect: G2/M arrest
ERBB3
  binding to kinase: significant binding
NEK9; FIG. 6
  kinase inhibition in screen: significant inhibition
NEK9; FIGS. 4 and 6
  binding to kinase: strongest binding
STK25
  binding to kinase: significant binding
[3]; 50-200 mg/d p.o.
  complete hematologic response, patients: 33%
  partial hematologic response, patients: 58%
  reduction of leukocyte count, median: 31 days
  reduction of splenomegaly, median: 25 days
[3]; with hydroxyurea
  effect of combination with hydroxyurea: synergistic effect
[4]
  genotoxicity: not genotoxic
VCAM-1
  VCAM-1: decreased
K562 cells
  mechanism of apoptosis: novel caspase-dependent pathway
HL-60
  activity against cells: activity
ECV304 [5]
  activity against cells: activity
Murine cancer models
  efficacy in model: effective
[6]
  efficacy in model: effective
[7]
  efficacy in model: effective
AML cells
  Bak: upregulation
  Bax: upregulation
AML NOD/SCID model
  spleen size: dose-dependent spleen size reduction
dogs
  tolerability: well tolerated
Primary AML
  activity against cells: activity
VEGF
  VEGF protection: decreased
AML cell lines
  cell cycle specific effect: arrest in G(O)/G1
Cytochrome P450 2C8
  inhibition of enzyme, concentration: low micromolar concentrations
Cytochrome P450 2C19
  metabolism by enzyme: metabolized
W256 cells
  DNA and RNA synthesis: inhibition
Lewis lung sarcoma
  efficacy in model: effective
ECV304 [8]
  apoptosis: apoptosis
Cytochrome P450 1A2 [9]
  metabolism by enzyme: metabolized
Jurkat cells
  Ahi-1: upregulation
[10]
  genotoxicity: not genotoxic
HUVEC [11]
  tubule formulation: decreased
[12]
  c-myb gene expression: downregulation
  differentiation: promotes differentiation
Cytochrome P450 1A2 [13]
  inhibition of enzyme, concentration: low micromolar concentrations
[14]
  killing of malignant cell lines (viability): effective in killing
[15]
  metabolic routes: N-demethylation and mono ring hydroxylation
rats
  tolerability: well tolerated
[16]
  concentration at which GSK-3β is inhibited: 5 to 50 nM
patients; patients
  cardiac, hepatic, or renal adverse effects: no cardiac, hepatic, or renal adverse effects
patients; patients, spontaneously disappeared in two weeks
  mild nausea and vomiting: 30%
patients; several patient populations, single agent or in combination with chemotherapy
  tolerability: well tolerated
HT29
  activity against cells: activity
K562
  activity against cells: activity
Primary AML cells
  Bcl-2: downregulation
  p21: upregulation
  p27: upregulation
[17]
  metabolism by enzyme: metabolized
HL-60 cells
  c-myc: decreases
  β-catenin: decreases
NB4
  activity against cells: activity
HL-60 myeloid cells
  cleavage of pro-caspase 3, 8, 9 and PARP: stimulates the cleavage
